In brackets after ≈: the same amount, converted by molar mass.
Columns and labels:
MpaCA = target: T1, MpaCA (Malassezia pachydermatis, UniProt A0A0M8MPA4); test: stopped-flow CO2 hydrase assay; type: biochemical
T1 construct: gene Malapachy_3798
T1 sequence (A0A0M8MPA4 1-242): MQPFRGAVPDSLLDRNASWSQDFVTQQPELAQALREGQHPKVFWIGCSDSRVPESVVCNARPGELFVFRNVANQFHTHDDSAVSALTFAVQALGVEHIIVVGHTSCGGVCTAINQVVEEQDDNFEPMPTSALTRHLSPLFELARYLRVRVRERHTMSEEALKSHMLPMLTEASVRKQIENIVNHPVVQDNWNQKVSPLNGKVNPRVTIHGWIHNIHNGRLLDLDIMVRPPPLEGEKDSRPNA

MgCA = target: T2, MgCA (Malassezia globosa, UniProt A8Q1N3); test: stopped-flow CO2 hydrase assay; type: biochemical
T2 construct: gene MGL_1814
T2 sequence (A8Q1N3 1-241): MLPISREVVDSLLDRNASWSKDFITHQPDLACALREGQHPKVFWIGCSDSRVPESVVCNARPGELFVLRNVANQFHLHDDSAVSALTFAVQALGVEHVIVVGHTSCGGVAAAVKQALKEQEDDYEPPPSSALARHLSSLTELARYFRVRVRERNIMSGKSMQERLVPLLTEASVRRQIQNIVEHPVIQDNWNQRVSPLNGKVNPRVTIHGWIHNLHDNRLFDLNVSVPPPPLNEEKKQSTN
Summary of the method: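 Stopped-flow recording over 10–100 s followed CO2 hydration (1.7–17 mM CO2) in 20 mM Hepes pH 7.4 plus 20 mM Na2SO4, using 0.2 mM phenol red at 557 nm, after recombinant carbonic anhydrase (5–12 nM) had been preincubated with inhibitor for 15 min at room temperature. Initial rates, corrected for uncatalysed rates, came from at least six traces, and at least three determinations were averaged. Ki was calculated by nonlinear least-squares fitting with the Cheng-Prusoff equation.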

ATCC M. furfur 14521 = test system: T3, ATCC M. furfur 14521; test: microbe, parasite or virus in culture; details: Malassezia furfur
T3 construct: ATCC 14521
Method: (§1) Inoculum preparations for antifungal assays were performed following the CLSI guidelines for antifungal susceptibility testing of yeasts.[31] Antifungal activity was evaluated on unicellular yeasts Candida albicans ATCC 10231, Candida glabrata ATCC 90030 (DSMZ 11226), Malassezia pachydermatis CDC 16334 (DSMZ 6172), Malassezia globosa ATCC MYA 4612, and Malassezia furfur ATCC 14521. All the fungal strains were stored at −80 °C in cryovials. Then Candida spp. and Malassezia pachydermatis were reactivated in RPMI 1640 broth for 24–48 h at 35 °C. The so obtained fresh cultures were streaked onto Sabouraud dextrose agar and incubated for 24–48 h at 35 °C. Malassezia globosa and furfur were reactivated in modified RPMI 1640 broth[32] for 24–48 h at 35 °C (M. furfur) and 33 °C (M. globosa), and then the cultures were streaked onto Leeming and Notman agar (MLNA) and incubated for 48–72 h at 35 °C for M. furfur and at 33 °C for M. globosa. The fungal inoculum for the testing was prepared by suspending in phosphate buffer (PB) 10 mM pH 7 4–5 colonies of about 1 mm diameter. The fungal suspension was then adjusted to a final optical density of 0.5 McFarland standard (1–5 × 10^6 cells/mL). The compound solutions were tested in a range of concentrations from 0.01 μg/mL to 256 μg/mL, and 50 μL were then added in 96 wells microtiter plates with 50 μL of fungal inoculum and incubated for 24–48 h at 35 °C. Growth and sterility controls were performed. […] Compounds 3a, 3c, 5b, 7a–d, 9c, 11e, 11i, and 14a,b were selected as representatives of the chemical moieties synthesized prior to their screen on yeasts of biomedical relevance such as M. pachydermatis DSMZ 6172, C. albicans ATCC 10231, and C. glabrata ATCC 90030 (DSMZ 11226) strains. The clinical used drugs Ketoconazole, SeS2, and Amphotericin B were included as references (Table 1).

M. globosa ATCC MYA 4612 = test system: T4, M. globosa ATCC MYA 4612; test: microbe, parasite or virus in culture; details: Malassezia globosa
T4 construct: ATCC MYA 4612
Method: as §1

[1] = test system: T5, M. pachydermatis DSMZ 6172; test: microbe, parasite or virus in culture; set-up: broth microdilution MIC, M. pachydermatis and Candida, 35 °C; details: Malassezia pachydermatis, DSMZ6172
T5 construct: DSMZ 6172 (CDC 16334)
Method: as §1

Row | SMILES | Ki (MpaCA) | Ki (MgCA) | MIC (ATCC M. furfur 14521) | MIC (M. globosa ATCC MYA 4612) | MIC [1]
1 | NS(=O)(=O)c1ccc(NC(=[Se])Nc2ccc(F)cc2)cc1 [3b] | 965 nM | 648 nM |  |  | 
2 | NS(=O)(=O)c1ccc(NC(=[Se])Nc2cccc(C(F)(F)F)c2)cc1 [3d] | 617 nM | 803 nM | 213 ± 73.9 µg/mL (≈ 505 µM) | > 256 µg/mL | 6 ± 3.46 µg/mL (≈ 14.2 µM)
3 | NS(=O)(=O)c1ccc(NC(=[Se])Nc2ccccc2Cl)cc1 [3e] | 693 nM | 655 nM | 5.3 ± 2.31 µg/mL (≈ 13.6 µM) | 256 µg/mL (≈ 659 µM) | 1 ± 0.87 µg/mL (≈ 2.57 µM)
4 | NS(=O)(=O)c1cccc(NC(=[Se])Nc2ccccc2)c1 [4a] | 283 nM | 783 nM | 107 ± 37 µg/mL (≈ 301 µM) | 256 µg/mL (≈ 723 µM) | 4 µg/mL (≈ 11.3 µM)
5 | NS(=O)(=O)c1cccc(NC(=[Se])Nc2ccc(F)cc2)c1 [4b] | 342 nM | 700 nM |  |  | 
6 | NS(=O)(=O)c1ccc(CCNC(=[Se])Nc2ccccc2)cc1 [5a] | 793 nM | 655 nM |  |  | 
7 | NS(=O)(=O)c1ccc(CCNC(=[Se])Nc2cccc(C(F)(F)F)c2)cc1 [5c] | 992 nM | 701 nM |  |  | 
8 | NS(=O)(=O)c1ccc(CCNC(=[Se])Nc2ccc(Br)cc2)cc1 [5d] | 369 nM | 683 nM |  |  | 
9 | NS(=O)(=O)c1ccc(CCNC(=[Se])Nc2ccccc2Cl)cc1 [5e] | 518 nM | 812 nM | 2.3 ± 1.53 µg/mL (≈ 5.52 µM) | 256 µg/mL (≈ 614 µM) | 0.5 µg/mL (≈ 1.2 µM)
10 | COc1ccccc1NC(=[Se])NCCc1ccc(S(N)(=O)=O)cc1 [5f] | 525 nM | 411 nM | 1.3 ± 0.58 µg/mL (≈ 3.15 µM) | 256 µg/mL (≈ 621 µM) | 0.5 µg/mL (≈ 1.21 µM)
11 | NS(=O)(=O)c1ccc(CCNC(=[Se])Nc2ccc(I)cc2)cc1 [5g] | 531 nM | 689 nM | 1.7 ± 0.58 µg/mL (≈ 3.34 µM) | 85.3 ± 37 µg/mL (≈ 168 µM) | 1 µg/mL (≈ 1.97 µM)
12 | NS(=O)(=O)c1ccc(CCNC(=[Se])Nc2ccc3ccccc3c2)cc1 [5h] | 260 nM | 562 nM | 1.7 ± 0.58 µg/mL (≈ 3.93 µM) | 64 µg/mL (≈ 148 µM) | 0.5 µg/mL (≈ 1.16 µM)
13 | CCCCCCCc1ccc(C(=O)NC(=[Se])Nc2ccc(S(N)(=O)=O)cc2)cc1 [7e] | 78200 nM | 5880 nM | 10.7 ± 4.62 µg/mL (≈ 22.3 µM) | > 256 µg/mL | 0.5 µg/mL (≈ 1.04 µM)
14 | NS(=O)(=O)c1ccc(NC(=[Se])NC(=O)c2ccc([N+](=O)[O-])cc2)cc1 [7f, 4-Nitro-N-((4-sulfamoylphenyl)carbamoselenoyl)benzamide] | 85400 nM | 9010 nM | 42.7 ± 18.5 µg/mL (≈ 99.9 µM) | 64 µg/mL (≈ 150 µM) | 2.2 ± 1.75 µg/mL (≈ 5.15 µM)
15 | NS(=O)(=O)c1ccc(NC(=[Se])NC(=O)c2ccc(I)cc2)cc1 [7g, 4-Iodo-N-((4-sulfamoylphenyl)carbamoselenoyl)benzamide] | 76100 nM | 3110 nM | 6 ± 3.46 µg/mL (≈ 11.8 µM) | 256 µg/mL (≈ 504 µM) | 0.5 µg/mL (≈ 0.984 µM)
16 | NS(=O)(=O)c1ccc(NC(=[Se])NC(=O)c2ccc(Br)cc2F)cc1 [7h, 4-Bromo-2-fluoro-N-((4-sulfamoylphenyl)carbamoselenoyl)benzamide] | 68500 nM | 764 nM | 3.3 ± 1.15 µg/mL (≈ 6.89 µM) | 64 µg/mL (≈ 134 µM) | 0.5 µg/mL (≈ 1.04 µM)

Row | SMILES | Ki (MpaCA) | Ki (MgCA) | MIC (ATCC M. furfur 14521) | MIC (M. globosa ATCC MYA 4612) | MIC [1]
17 | NS(=O)(=O)c1ccc(NC(=[Se])NC(=O)c2ccc(CCl)cc2)cc1 [7i, 4-(Chloromethyl)-N-((4-sulfamoylphenyl)carbamoselenoyl)benzamide] | 67700 nM | 877 nM | 16 µg/mL (≈ 37.1 µM) |  | 6.7 ± 2.31 µg/mL (≈ 15.6 µM)
18 | NS(=O)(=O)c1ccc(NC(=[Se])NC(=O)c2ccc(/N=N/c3ccccc3)cc2)cc1 [7j, (E)-4-(Phenyldiazenyl)-N-((4-sulfamoylphenyl)carbamoselenoyl)benzamide] | 37000 nM | 2860 nM | 21.3 ± 9.24 µg/mL (≈ 43.8 µM) | 24 ± 13.9 µg/mL (≈ 49.3 µM) | 2 µg/mL (≈ 4.11 µM)
19 | NS(=O)(=O)c1ccc(NC(=[Se])NC(=O)c2ccc(F)cc2)cc1 [7k, 4-Fluoro-N-((4-sulfamoylphenyl)carbamoselenoyl)benzamide] | 80800 nM | 8290 nM | 5.3 ± 2.31 µg/mL (≈ 13.2 µM) | 256 µg/mL (≈ 640 µM) | 0.5 µg/mL (≈ 1.25 µM)
20 | NS(=O)(=O)c1cccc(NC(=[Se])NC(=O)c2ccccc2)c1 [8a] | 33700 nM | 4140 nM | 21.3 ± 9.24 µg/mL (≈ 55.7 µM) | 128 µg/mL (≈ 335 µM) | 2 µg/mL (≈ 5.23 µM)
21 | CCCCCCCc1ccc(C(=O)NC(=[Se])Nc2cccc(S(N)(=O)=O)c2)cc1 [8b, 4-Heptyl-N-((3-sulfamoylphenyl)carbamoselenoyl)benzamide] | 49300 nM | 2190 nM | 6.7 ± 2.31 µg/mL (≈ 13.9 µM) | 213 ± 73.9 µg/mL (≈ 444 µM) | 0.8 ± 0.29 µg/mL (≈ 1.66 µM)
22 | NS(=O)(=O)c1cccc(NC(=[Se])NC(=O)c2cc(Br)cc(OC(F)(F)F)c2)c1 [8c, 3-Bromo-N-((3-sulfamoylphenyl)carbamoselenoyl)-5-(trifluoromethoxy)benzamide] | 86100 nM | 7650 nM | 9.3 ± 6.11 µg/mL (≈ 17.1 µM) | 256 µg/mL (≈ 470 µM) | 2 µg/mL (≈ 3.67 µM)
23 | NS(=O)(=O)c1cccc(NC(=[Se])NC(=O)c2ccc(F)cc2)c1 [8d, 4-Fluoro-N-((3-sulfamoylphenyl)carbamoselenoyl)benzamide] | 79500 nM | 7300 nM | 256 µg/mL (≈ 640 µM) | 256 µg/mL (≈ 640 µM) | 2 µg/mL (≈ 5 µM)
24 | NS(=O)(=O)c1cccc(NC(=[Se])NC(=O)c2ccc(I)cc2)c1 [8e, 4-Iodo-N-((3-sulfamoylphenyl)carbamoselenoyl)benzamide] | 77600 nM | 8740 nM | 6.7 ± 2.31 µg/mL (≈ 13.2 µM) | > 256 µg/mL | 8 µg/mL (≈ 15.7 µM)
25 | NS(=O)(=O)c1cccc(NC(=[Se])NC(=O)c2ccc(Cl)cc2)c1 [8f, 4-Chloro-N-((3-sulfamoylphenyl)carbamoselenoyl)benzamide] | 74700 nM | 2080 nM | 64 µg/mL (≈ 154 µM) | 128 µg/mL (≈ 307 µM) | 16 µg/mL (≈ 38.4 µM)
26 | NS(=O)(=O)c1cccc(NC(=[Se])NC(=O)c2ccc(Br)cc2F)c1 [8g, 4-Bromo-2-fluoro-N-((3-sulfamoylphenyl)carbamoselenoyl)benzamide] | 65700 nM | 3480 nM | 8 µg/mL (≈ 16.7 µM) | 128 µg/mL (≈ 267 µM) | 13.3 ± 4.6 µg/mL (≈ 27.8 µM)
27 | NS(=O)(=O)c1ccc(CCNC(=[Se])NC(=O)c2ccccc2)cc1 [9a] | 73900 nM | 565 nM | 4 µg/mL (≈ 9.75 µM) | 32 µg/mL (≈ 78 µM) | 1 µg/mL (≈ 2.44 µM)
28 | CCCCCCCc1ccc(C(=O)NC(=[Se])NCCc2ccc(S(N)(=O)=O)cc2)cc1 [9b, 4-Heptyl-N-((4-sulfamoylphenethyl)carbamoselenoyl)benzamide] | > 10000 nM | 6390 nM | 1.7 ± 0.58 µg/mL (≈ 3.34 µM) | 256 µg/mL (≈ 503 µM) | 1.7 ± 0.58 µg/mL (≈ 3.34 µM)
29 | NS(=O)(=O)c1ccc(CCNC(=[Se])NC(=O)c2ccc(F)cc2)cc1 [9d, 4-Fluoro-N-((4-sulfamoylphenethyl)carbamoselenoyl)benzamide] | 75000 nM | 8000 nM | 2.3 ± 2.31 µg/mL (≈ 5.37 µM) | 128 µg/mL (≈ 299 µM) | 1 µg/mL (≈ 2.33 µM)
30 | NS(=O)(=O)c1ccc(CCNC(=[Se])NC(=O)c2ccc(I)cc2)cc1 [9e, 4-Iodo-N-((4-sulfamoylphenethyl)carbamoselenoyl)benzamide] | 83300 nM | 1570 nM | 3.3 ± 1.15 µg/mL (≈ 6.15 µM) | 32 µg/mL (≈ 59.7 µM) | 1 µg/mL (≈ 1.86 µM)
31 | NS(=O)(=O)c1ccc(CCNC(=[Se])NC(=O)c2ccc(/N=N/c3ccccc3)cc2)cc1 [9f, (E)-4-(Phenyldiazenyl)-N-((4-sulfamoylphenethyl)carbamoselenoyl)benzamide] | 88800 nM | 2390 nM | 2.7 ± 1.15 µg/mL (≈ 5.25 µM) | 8 µg/mL (≈ 15.6 µM) | 3.33 ± 1.15 µg/mL (≈ 6.47 µM)

— publication PMC9940851, “Seleno Containing Compounds as Potent and Selective Antifungal Agents” (ACS Infectious Diseases, 2022)
